This series addresses Multidrug resistance-associated protein 1 (ABCC1) (Homo sapiens) (UniProt P33527). Nature of the series: In vitro for its inhibitory activity against MRP1-transfected HeLa-T5 cell line in the presence of doxorubicin.
Multidrug resistance-associated protein 1 (ABCC1) (Homo sapiens), sequence (P33527 whole entry, looked up): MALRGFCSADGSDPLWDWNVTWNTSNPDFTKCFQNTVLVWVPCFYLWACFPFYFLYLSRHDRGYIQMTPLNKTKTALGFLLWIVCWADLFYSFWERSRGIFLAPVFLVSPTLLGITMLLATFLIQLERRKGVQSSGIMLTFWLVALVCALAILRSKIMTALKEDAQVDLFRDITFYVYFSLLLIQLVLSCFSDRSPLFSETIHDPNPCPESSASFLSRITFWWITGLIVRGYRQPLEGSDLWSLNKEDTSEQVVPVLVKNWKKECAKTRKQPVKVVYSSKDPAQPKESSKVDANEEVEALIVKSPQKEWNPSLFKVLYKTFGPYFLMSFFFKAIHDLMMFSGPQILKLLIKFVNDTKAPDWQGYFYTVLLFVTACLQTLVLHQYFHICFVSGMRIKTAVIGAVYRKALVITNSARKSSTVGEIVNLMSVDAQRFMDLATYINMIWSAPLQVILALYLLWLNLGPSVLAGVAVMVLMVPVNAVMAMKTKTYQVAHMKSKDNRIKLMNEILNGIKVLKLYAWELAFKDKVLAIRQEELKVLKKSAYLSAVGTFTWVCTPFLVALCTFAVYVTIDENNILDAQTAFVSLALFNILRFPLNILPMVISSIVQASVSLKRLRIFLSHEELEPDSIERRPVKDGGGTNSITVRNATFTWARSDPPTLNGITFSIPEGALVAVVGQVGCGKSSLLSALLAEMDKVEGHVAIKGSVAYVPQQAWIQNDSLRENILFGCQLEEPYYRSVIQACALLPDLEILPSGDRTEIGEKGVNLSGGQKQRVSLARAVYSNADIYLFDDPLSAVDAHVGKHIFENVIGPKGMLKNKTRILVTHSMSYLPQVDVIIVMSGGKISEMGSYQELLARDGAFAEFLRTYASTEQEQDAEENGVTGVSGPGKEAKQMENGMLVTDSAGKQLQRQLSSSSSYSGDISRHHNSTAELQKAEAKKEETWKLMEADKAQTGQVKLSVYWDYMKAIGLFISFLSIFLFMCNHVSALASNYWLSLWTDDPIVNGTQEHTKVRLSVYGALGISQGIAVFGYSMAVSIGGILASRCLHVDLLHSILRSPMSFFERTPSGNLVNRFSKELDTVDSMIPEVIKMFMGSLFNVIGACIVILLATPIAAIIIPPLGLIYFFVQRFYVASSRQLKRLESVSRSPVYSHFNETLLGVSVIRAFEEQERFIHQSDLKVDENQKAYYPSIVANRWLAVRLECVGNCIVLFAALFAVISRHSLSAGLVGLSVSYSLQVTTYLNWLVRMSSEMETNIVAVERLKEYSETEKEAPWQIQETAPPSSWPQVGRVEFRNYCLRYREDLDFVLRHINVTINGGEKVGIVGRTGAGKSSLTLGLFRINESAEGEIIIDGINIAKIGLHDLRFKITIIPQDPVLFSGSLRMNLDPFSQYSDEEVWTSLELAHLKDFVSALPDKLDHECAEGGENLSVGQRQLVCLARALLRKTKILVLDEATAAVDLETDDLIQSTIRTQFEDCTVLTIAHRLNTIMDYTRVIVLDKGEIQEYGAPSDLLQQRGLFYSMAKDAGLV
One may read the EC50 as the concentration that produces a half-maximal response. With `COc1cc(OCCc2cccc(-n3c(=O)c4c(C)onc4c4c(Cl)cccc43)c2)cc(OC)c1OC` [9-Chloro-3-methyl-5-{3-[2-(3,4,5-trimethoxy-phenoxy)-ethyl]-phenyl}-5H-isoxazolo[4,3-c]quinolin-4-one], the EC50 was found to be 1.47 µM.

As for `COc1ccc(NC(=O)Cc2cccc(-n3c(=O)c4c(C)onc4c4c(Cl)cccc43)c2)cc1` [2-[3-(9-Chloro-3-methyl-4-oxo-4H-isoxazolo[4,3-c]quinolin-5-yl)-phenyl]-N-(4-methoxy-phenyl)-acetamide], the EC50 was over 10 µM.

For the compound `COC(=O)c1ccc(NC(=O)Cc2cccc(-n3c(=O)c4c(C)onc4c4c(Cl)cccc43)c2)cc1` [4-{2-[3-(9-Chloro-3-methyl-4-oxo-4H-isoxazolo[4,3-c]quinolin-5-yl)-phenyl]-acetylamino}-benzoic acid methyl ester], the EC50 was over 10 µM.

Turning to `COc1cc(CNCc2cccc(-n3c(=O)c4c(C)onc4c4c(Cl)cccc43)c2)cc(OC)c1OC` [9-Chloro-3-methyl-5-{3-[(3,4,5-trimethoxy-benzylamino)-methyl]-phenyl}-5H-isoxazolo[4,3-c]quinolin-4-one], the 50% effective concentration (EC50) was determined as 1.77 µM.

For `Cc1onc2c1c(=O)n(-c1cccc(CC(=O)Nc3ccc(S(N)(=O)=O)cc3)c1)c1cccc(Cl)c21` [2-[3-(9-Chloro-3-methyl-4-oxo-4H-isoxazolo[4,3-c]quinolin-5-yl)-phenyl]-N-(4-sulfamoyl-phenyl)-acetamide], the EC50 is over 10 µM.

For the compound `Cc1onc2c1c(=O)n(-c1cccc(CC(=O)Nc3ccc(F)cc3)c1)c1cccc(Cl)c21` [2-[3-(9-Chloro-3-methyl-4-oxo-4H-isoxazolo[4,3-c]quinolin-5-yl)-phenyl]-N-(4-fluoro-phenyl)-acetamide], the concentration giving a half-maximal response (EC50) is 3.2 µM.

As for `COc1cccc(NC(=O)Cc2cccc(-n3c(=O)c4c(C)onc4c4c(Cl)cccc43)c2)c1` [2-[3-(9-Chloro-3-methyl-4-oxo-4H-isoxazolo[4,3-c]quinolin-5-yl)-phenyl]-N-(3-methoxy-phenyl)-acetamide], the EC50 was 1.8 µM.

`COc1cc(NC(=O)Cc2cccc(-n3c(=O)c4c(C)onc4c4c(Cl)cccc43)c2)cc(OC)c1` [2-[3-(9-Chloro-3-methyl-4-oxo-4H-isoxazolo[4,3-c]quinolin-5-yl)-phenyl]-N-(3,5-dimethoxy-phenyl)-acetamide]: the EC50 was found to be 2.1 µM.

`Cc1onc2c1c(=O)n(-c1cccc(CC(=O)Nc3ccc(C(C)(C)C)cc3)c1)c1cccc(Cl)c21` [N-(4-tert-Butyl-phenyl)-2-[3-(9-chloro-3-methyl-4-oxo-4H-isoxazolo[4,3-c]quinolin-5-yl)-phenyl]-acetamide]: the EC50 was over 10 µM.

For `COc1ccc(NC(=O)Cc2cccc(-n3c(=O)c4c(C)onc4c4c(Cl)cccc43)c2)cc1OC` [2-[3-(9-Chloro-3-methyl-4-oxo-4H-isoxazolo[4,3-c]quinolin-5-yl)-phenyl]-N-(3,4-dimethoxy-phenyl)-acetamide], the EC50 was 4.1 µM.

As to `Cc1cc(C(=O)N[C@@H]2c3cc(-n4c(=O)c5c(C)onc5c5c(Cl)cccc54)ccc3C[C@H]2O)no1` [5-Methyl-isoxazole-3-carboxylic acid [(1R,2R)-6-(9-chloro-3-methyl-4-oxo-4H-isoxazolo[4,3-c]quinolin-5-yl)-2-hydroxy-indan-1-yl]-amide], the EC50 was 10 µM.

`Cc1onc2c1c(=O)n(-c1cccc(CC(=O)Nc3ccc4c(c3)OCO4)c1)c1cccc(Cl)c21` [N-Benzo[1,3]dioxol-5-yl-2-[3-(9-chloro-3-methyl-4-oxo-4H-isoxazolo[4,3-c]quinolin-5-yl)-phenyl]-acetamide]: the EC50 came out at 4 µM.

As for `Cc1cc(C(=O)NCc2cccc(-n3c(=O)c4c(C)onc4c4c(Cl)cccc43)c2)no1` [5-Methyl-isoxazole-3-carboxylic acid 3-(9-chloro-3-methyl-4-oxo-4H-isoxazolo[4,3-c]quinolin-5-yl)-benzylamide], the EC50 is 7.9 µM.

As for `COc1cc(N(C)C(=O)Cc2cccc(-n3c(=O)c4c(C)onc4c4c(Cl)cccc43)c2)cc(OC)c1OC` [2-[3-(9-Chloro-3-methyl-4-oxo-4H-isoxazolo[4,3-c]quinolin-5-yl)-phenyl]-N-methyl-N-(3,4,5-trimethoxy-phenyl)-acetamide], the EC50 was 0.64 µM.

Values taken from BindingDB's records for doi:10.1016/s0960-894x(02)00051-3 (Eli Lilly, 2002).
